Measurements published in US9211313B2, “Methods and compound to inhibit Ca2+ permeable cation conductance” (priority 2011, dated 2015).
Entries after “also recorded” stand apart in the source; their conditions may differ.

Columns and labels:
Format in all cases: cell-based
[1] = test system: deoxygenation-activated cation conductance in human SS red cells; assay: On-cell patch clamp of deoxygenation-activated cation conductance, symmetric Na methanesulfonate
Description: (§1) Blood cell preparation: Human SS and AA blood was obtained under IRB-approved protocols of Children's Hospital and Beth Israel Deaconess Medical Center. After buffy coat removal and 5 washes in standard human red cell wash solution containing (in mM) 150 choline Cl, 1 MgCl, and 10 Tris-MOPS, pH 7.4, red cells were resuspended in storage solution containing (in mM) 145 KCl, 15 NaCl, and 10 HEPES, pH 7.4, then kept at 4° C. until used. Human red cells allowed to settle on coverslips were mounted on an inverted microscope in a 200 μl open chamber (WPI, Sarasota, Fla.) and superfused 15 min at room temperature by bath solution containing (in mM) 150 Na methanesulfonate, 10 Na EDTA, and 10 Na HEPES, pH 7.4.
Mouse red cells allowed to settle on coverslips were superfused 15 min with bath solution containing (in mM) either 150 mM Na methanesulfonate, 10 Na EDTA, and 10 Na HEPES, pH 7.4; or 140 NaCl, 4 KCl, 1CaCl2, 1 MgCl2, 10 Na HEPES, pH 7.4. Deoxygenation was achieved by switching superfusate to the same solution gassed ≧30 min prior to the experiment with 100% N2, and by flushing of the perfusion chamber with N2 during the deoxygenation period. The resulting bath pO2 was 18 mm Hg as measured by oxygen electrode (WPI). In the experiments of FIG. 1, deoxygenated cells were subsequently re-oxygenated by exposure to the same superfusate equilibrated with room air.
(§2) Washed human or mouse red cells in solution containing (in mM) 140 NaCl, 5 KCl, 1 CaCl2, 1 MgCl2, 10 Na HEPES, pH 7.4 were exposed for 1 hr on a rotary platform in a 37° C. incubator to 25 ppm carbon monoxide (CO) in 5% CO2. CO-exposed cells were then subjected to patch clamp or to calcium imaging experiments within 60 min after return to room air, using the solutions indicated.
(§3) On-cell patch clamp: Borosilicate pipettes (Corning 7052) pulled with a Narishige two stage puller or a Sutter P97 puller and fire-polished to resistances of 10-20 MΩ were front-filled and then backfilled. Symmetric bath and pipette solutions for studies of seal resistance stability during reversibility tests of the deoxygenation-activated conductance in SAD mouse red cells were (in mM) 140 NaCl, 4 KCl, 1 CaCl2, 1 MgCl2, 10 Na HEPES, pH 7.4. These conditions yielded tight seals in 13% of patch attempts on SAD cells. For study of deoxygenation-induced monovalent cation permeation in the absence of bath Ca^2+ and Mg^2+ recorded in SAD and Berkeley mouse cells and in human cells, symmetric bath and pipette solutions contained (in mM) 150 Na methanesulfonate, 10 Na EDTA, and 10 Na HEPES, pH 7.4. These conditions yielded tight seals in 16% of patch attempts on SAD mouse red cells, 26% of attempts on Berkeley mouse cells, and 30% of attempts on human SS cells. For study of Ca^2+ permeation in human SS cells, bath and pipette solutions contained (in mM) 100 CaCl2, 10 Na HEPES, pH 7.4. These conditions yielded tights seals on 44% of attempts. For all conditions tested in human red cells, 70% of tight seals were sustained through the solution change accompanying deoxygenation to allow recording of current activity.
(§4) On-cell patch currents were recorded with the Axopatch 1-D amplifier (Axon Instruments/Molecular Devices, Sunnyvale, Calif.). Holding potential was −Vp=−50 mV (expressed as the negative of the pipette potential (e.g., equivalent to the intracellular potential with respect to the pipette). To determine current-voltage relationships (I-V curves) in Fetchex or Clampex (PCLAMP, Axon Instruments), the realtime control window in gap-free mode was used to record current traces of 10-30 sec duration at holding potentials ranging from −100 to +100 mV, in 25 mV increments. The bath reference electrode was a silver chloride wire with a 3 M KCl agar bridge. Data was filtered at 500 Hz, digitized at 2 kHz by Clampex, and analyzed offline by Fetchan and Pstat or by Clampfit subroutines of PCLAMP. Holding potentials in on-cell patch experiments were expressed as −Vp, the negative of the pipette potential.

[2] = test system: LPA-induced cation conductance in human SS red cells; assay: On-cell patch clamp of LPA-induced cation conductance
Source text: as §3, §4
Deoxygenation-activated flickering cation conductance observed in human SS cells contrasted with the prolonged channel openings produced by 5 μM LPA (FIG. 10A). In SS cells, LPA increased NPo […], from 0.04±0.03 to 0.82±0.18 (n=8, p<0.001; Na methanesulfonate in bath and pipette, −Vp=−50 mV; FIG. 10B). LPA-induced cation conductance was 96% inhibited by 100 uM dipyridamole in the pipette, and 97% inhibited by 1 μM GsMTx-4 in the pipette (both n=4).

KCa3.1 = molecular target: T1, KCa3.1 (Homo sapiens, UniProt O15554)
T1 construct: KCa3.1 activity stimulated in intact human AA cells by 1 μM A23187; endogenous in cells; host or cells: intact human AA red blood cells

human SS red cells = assay: Fluo-3 fluorescence measurement of [Ca2+]i during deoxygenation, human SS cells; details: CO preincubation, no continued CO exposure
Description: as §1, §2
(§5) Fluorescence measurements of cytosolic [Ca^2+] ([Ca^2+]i): After removal of plasma and buffy coat by aspiration, human or mouse red cells were washed three times at room temperature and suspended in modified Hank's solution containing (in mM), 137 NaCl, 5.4 KCl, 1 CaCl2, 1 MgCl2, 0.8 NaK phosphate, 5.6 glucose, and 10 Na HEPES, pH 7.4. Dilute cell suspensions were settled on polylysine-coated coverslips forming the bottom of an open perfusion chamber (2.5 cm diameter, 1 cm depth) and washed again 3 times.
Measurement of relative changes in [Ca^2+]i by Fluo-3 fluorescence emission was previously validated in intact human (Yang et al. 2000, Blood, 95(7):2421-2425; Andrews et al. 2002, Blood, 199(9):3392-3399) and mouse red cells (Akel et al. 2007, Amer. J. Physiol., 292(5):C1759-1767). […] Fluorescence emission (proportional to [Ca^2+]i) from a 535ds20 bandpass filter was collected from all attached single cells within the arbitrarily selected visual field. […]
(§6) Fluo-3 fluorescence from attached cells on each coverslip was recorded 60 sec in room air and then for 10 min after onset of perfusion chamber flushing with humidified 100% N2. The normalized increase in Fluo-3 fluorescence in SS cells subjected to this deoxygenation procedure was indistinguishable from that observed during superfusion of cells in a closed perfusion chamber via syringe pump with bath previously bubbled for 60 min with 100% N2 (n=62 cells from 2 SS patients, not shown). The y-axis value of 0% change in Fluo-3 fluorescence intensity represented mean intensity recorded from all cells within the coverslip visual field during the 60 sec prior to deoxygenation.

[3] = test system: SAD sickle mouse red cells; assay: Fluo-3 fluorescence measurement of [Ca2+]i during deoxygenation, SAD cells
Description: Blood was withdrawn by cardiac puncture or from the tail vein of C57B16/J wildtype mice, SAD sickle mice, or Berkeley sickle mice into heparinized syringes by IACUC-approved protocols of Beth Israel Deaconess Medical Center. Buffy coat-depleted cells were washed 5 times in standard mouse red cell wash solution containing (in mM) 172 choline Cl, 10 sucrose, 10 Na Tris-MOPS, pH 7.4, resuspended in storage solution, and kept at 4° C. until use.
as §5
Measurement of relative changes in [Ca^2+]i by Fluo-3 fluorescence emission was previously validated in intact human (Yang et al. 2000, Blood, 95(7):2421-2425; Andrews et al. 2002, Blood, 199(9):3392-3399) and mouse red cells (Akel et al. 2007, Amer. J. Physiol., 292(5):C1759-1767). Attached red cells were loaded in the dark with the fluorescent non-ratiometric Ca^2+ indicator Fluo-3-AM (10 μM, Molecular Probes, Eugene, Oreg.) at 37° C. for 1 hr, then washed and incubated 15 min further to allow de-esterification of intracellular dye. The open perfusion chamber containing dye-loaded cells was mounted on an Olympus IMT-2 inverted epifluorescence microscope equipped with CoolSNAP CCD camera (Photometrics, Tucson, Ariz.). Fluo-3 in cells imaged through a 60× objective was excited by mercury-xenon illumination passed through a 495ds20 filter. Fluorescence emission (proportional to [Ca^2+]i) from a 535ds20 bandpass filter was collected from all attached single cells within the arbitrarily selected visual field. Emission image acquisition was controlled by a Metafluor digital imaging system (Universal Imaging, West Chester, Pa.).
as §6

T1 sequence (O15554 whole entry): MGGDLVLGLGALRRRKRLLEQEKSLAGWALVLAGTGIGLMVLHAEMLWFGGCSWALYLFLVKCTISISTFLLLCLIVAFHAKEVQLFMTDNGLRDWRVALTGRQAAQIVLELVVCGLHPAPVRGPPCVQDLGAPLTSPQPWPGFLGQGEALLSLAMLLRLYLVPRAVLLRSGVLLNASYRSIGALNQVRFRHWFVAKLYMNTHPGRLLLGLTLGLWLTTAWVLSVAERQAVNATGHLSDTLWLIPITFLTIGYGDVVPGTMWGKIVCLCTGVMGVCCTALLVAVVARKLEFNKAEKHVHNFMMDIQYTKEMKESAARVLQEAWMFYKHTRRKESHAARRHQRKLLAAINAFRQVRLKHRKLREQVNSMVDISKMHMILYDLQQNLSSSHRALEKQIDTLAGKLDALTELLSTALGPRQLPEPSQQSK

## OCCN(CCO)c1nc(N2CCCCC2)c2nc(N(CCO)CCO)nc(N3CCCCC3)c2n1 [dipyridamole]
[1]; 100 μM in the pipette
  effect on deoxygenation-induced activation of cation conductance: prevented
[1]; 100 μM in the pipette, n=4
  NPo after deoxygenation (hypoxic): 0.004±0.002
  Normoxic NPo: 0.00
[2]; 100 μM in the pipette
  effect on LPA-induced increase in NPo: prevented
[2]; Homo sapiens, 100 uM in the pipette, 5 μM LPA, n=4
  inhibition at 100 µM: 96%

## O=S(=O)(O)c1cc(N=C=S)ccc1C=Cc1ccc(N=C=S)cc1S(=O)(=O)O [DIDS, 4,4′-diisothiocyanatostilbene-2,2′-disulfonic acid]
[1]; 100 μM in the pipette
  effect on deoxygenation-induced activation of cation conductance: prevented; also recorded: blocked
[1]; 100 μM in the pipette, n=4
  NPo after deoxygenation (hypoxic): 0.001±0.001
  Normoxic NPo: 0.002±0.002

## Clc1ccccc1C(c1ccccc1)(c1ccccc1)n1ccnc1 [clotrimazole, reference compound]
KCa3.1
  effect on A23187-stimulated cell shrinkage: completely inhibited

## [C-]#[O+] [CO, carbon monoxide]
Human SS red cells
  effect on [Ca2+]i elevation by deoxygenation: blocked; also recorded: inhibited
[1]; CO-pretreated cells, n=4
  NPo upon deoxygenation: 0.0625±0.0375
  Normoxic NPo: 0.0377±0.0375
[1]; prior CO exposure of SS cells
  effect on activation of conductance upon deoxygenation: prevented

## [Na+].[Na+].[Na+].[O]=[V]([O-])([O-])[O-] [vanadate, Na vanadate]
[3]; 50 μM in bath, acute deoxygenation
  effect on deoxygenation-induced [Ca2+]i elevation: enhanced; also recorded: further elevated
[3]; 50 μM, continued presence
  time to plateau [Ca2+]i after deoxygenation: < 2 min
[3]; 50 μM, 5 min normoxic preincubation of SAD cells
  [Ca2+]i-dependent Fluo-3 emission increase: 12.8±1.8%
[3]; 50 μM, after ~4 min longer at plateau
  late [Ca2+]i relative to plateau: twice the previous plateau value
